Measurements as given in ChEMBL document CHEMBL4425142, “Inhibitors of diacylglycerol lipases in neurodegenerative and metabolic disorders” (Bioorg Med Chem Lett, 2016).

Columns and labels:
[1] = biological target: T1, Diacylglycerol lipase-alpha (Homo sapiens, UniProt Q9Y4D2); assay: Inhibition of human C-terminal HA-tagged DAGLalpha expressed in HEK293F cell membrane fractions using DiFMU-octanoate as substrate by fluorogenic surrogate substrate assay
T1 sequence (Q9Y4D2 whole entry): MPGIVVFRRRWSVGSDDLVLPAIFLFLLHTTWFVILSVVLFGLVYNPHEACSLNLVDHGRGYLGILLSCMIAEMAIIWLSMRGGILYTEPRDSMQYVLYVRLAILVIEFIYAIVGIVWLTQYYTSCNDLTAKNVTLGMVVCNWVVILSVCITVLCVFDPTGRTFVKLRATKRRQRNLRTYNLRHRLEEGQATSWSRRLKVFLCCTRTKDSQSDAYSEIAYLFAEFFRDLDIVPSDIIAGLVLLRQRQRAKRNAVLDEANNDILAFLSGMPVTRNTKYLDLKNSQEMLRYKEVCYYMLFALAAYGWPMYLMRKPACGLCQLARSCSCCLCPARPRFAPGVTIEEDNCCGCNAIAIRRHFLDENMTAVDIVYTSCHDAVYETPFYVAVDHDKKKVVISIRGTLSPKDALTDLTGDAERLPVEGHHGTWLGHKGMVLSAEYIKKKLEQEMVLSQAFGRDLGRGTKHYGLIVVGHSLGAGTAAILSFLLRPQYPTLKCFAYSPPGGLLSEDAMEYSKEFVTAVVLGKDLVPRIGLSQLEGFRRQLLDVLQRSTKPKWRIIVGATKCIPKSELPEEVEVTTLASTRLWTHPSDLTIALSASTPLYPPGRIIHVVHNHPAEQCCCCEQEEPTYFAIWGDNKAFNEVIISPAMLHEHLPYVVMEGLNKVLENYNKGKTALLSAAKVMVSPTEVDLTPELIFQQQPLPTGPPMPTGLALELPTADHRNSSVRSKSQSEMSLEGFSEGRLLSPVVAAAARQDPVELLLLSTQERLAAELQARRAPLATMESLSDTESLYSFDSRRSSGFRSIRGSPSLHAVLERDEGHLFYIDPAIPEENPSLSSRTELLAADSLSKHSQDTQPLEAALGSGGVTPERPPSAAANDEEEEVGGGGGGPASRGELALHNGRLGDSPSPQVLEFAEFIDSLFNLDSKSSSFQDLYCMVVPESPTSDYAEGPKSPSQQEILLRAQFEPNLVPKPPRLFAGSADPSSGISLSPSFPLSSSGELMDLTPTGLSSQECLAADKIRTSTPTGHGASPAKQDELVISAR

[2] = biological target: T1, Diacylglycerol lipase-alpha; assay: Inhibition of human C-terminal HA-tagged DAGLalpha expressed in HEK293F cell membrane fractions using PNP butyrate as substrate by colorimetric surrogate substrate assay
[3] = biological target: T2, Diacylglycerol lipase-alpha (Mus musculus, UniProt Q6WQJ1); assay: Inhibition of DAGLalpha in mouse brain proteome pre-incubated for 30 mins followed by ABP MB064 probe addition for 15 mins by ABPP assay; assay type: subcellular
T2 sequence (Q6WQJ1 whole entry): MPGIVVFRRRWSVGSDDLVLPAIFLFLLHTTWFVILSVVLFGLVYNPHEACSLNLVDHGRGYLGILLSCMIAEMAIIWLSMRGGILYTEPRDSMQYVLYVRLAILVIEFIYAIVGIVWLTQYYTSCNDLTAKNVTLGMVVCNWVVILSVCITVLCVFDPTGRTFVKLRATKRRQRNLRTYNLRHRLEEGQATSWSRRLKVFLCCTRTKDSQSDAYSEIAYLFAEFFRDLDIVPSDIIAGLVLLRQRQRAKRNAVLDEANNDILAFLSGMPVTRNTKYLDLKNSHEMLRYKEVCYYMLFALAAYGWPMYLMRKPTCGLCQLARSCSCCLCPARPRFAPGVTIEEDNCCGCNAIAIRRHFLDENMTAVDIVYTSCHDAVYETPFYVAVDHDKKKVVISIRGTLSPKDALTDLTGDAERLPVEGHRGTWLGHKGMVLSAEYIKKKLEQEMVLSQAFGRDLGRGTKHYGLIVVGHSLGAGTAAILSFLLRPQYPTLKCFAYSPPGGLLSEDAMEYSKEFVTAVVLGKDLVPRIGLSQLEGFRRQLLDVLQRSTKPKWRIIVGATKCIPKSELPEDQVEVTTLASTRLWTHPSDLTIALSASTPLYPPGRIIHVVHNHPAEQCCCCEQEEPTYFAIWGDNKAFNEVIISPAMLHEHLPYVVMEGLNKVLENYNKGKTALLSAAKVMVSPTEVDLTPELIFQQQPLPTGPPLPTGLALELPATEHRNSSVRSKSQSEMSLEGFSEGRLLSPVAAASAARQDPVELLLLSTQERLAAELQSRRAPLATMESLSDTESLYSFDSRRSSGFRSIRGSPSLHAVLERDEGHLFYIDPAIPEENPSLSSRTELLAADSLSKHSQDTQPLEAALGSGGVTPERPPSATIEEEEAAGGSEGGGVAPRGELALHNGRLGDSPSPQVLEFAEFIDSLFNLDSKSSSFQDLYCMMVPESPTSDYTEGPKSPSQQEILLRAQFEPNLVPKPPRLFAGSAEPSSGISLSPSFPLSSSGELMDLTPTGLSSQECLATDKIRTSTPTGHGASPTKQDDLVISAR

[4] = biological target: T1, Diacylglycerol lipase-alpha; assay: Inhibition human DAGLalpha expressed in HEK293T cell membrane fractions using DAG as substrate preincubated for 30 mins followed by ABP HT01 probe addition measured after 30 mins in presence of probe by gel-based ABPP competition assay
[5] = biological target: T3, Diacylglycerol lipase-beta (Mus musculus, UniProt Q91WC9); assay: Inhibition mouse DAGLbeta expressed in HEK293T cell membrane fractions using DAG as substrate preincubated for 30 mins followed by ABP HT01 probe addition measured after 30 mins in presence of probe by gel-based ABPP competition assay
T3 sequence (Q91WC9 whole entry): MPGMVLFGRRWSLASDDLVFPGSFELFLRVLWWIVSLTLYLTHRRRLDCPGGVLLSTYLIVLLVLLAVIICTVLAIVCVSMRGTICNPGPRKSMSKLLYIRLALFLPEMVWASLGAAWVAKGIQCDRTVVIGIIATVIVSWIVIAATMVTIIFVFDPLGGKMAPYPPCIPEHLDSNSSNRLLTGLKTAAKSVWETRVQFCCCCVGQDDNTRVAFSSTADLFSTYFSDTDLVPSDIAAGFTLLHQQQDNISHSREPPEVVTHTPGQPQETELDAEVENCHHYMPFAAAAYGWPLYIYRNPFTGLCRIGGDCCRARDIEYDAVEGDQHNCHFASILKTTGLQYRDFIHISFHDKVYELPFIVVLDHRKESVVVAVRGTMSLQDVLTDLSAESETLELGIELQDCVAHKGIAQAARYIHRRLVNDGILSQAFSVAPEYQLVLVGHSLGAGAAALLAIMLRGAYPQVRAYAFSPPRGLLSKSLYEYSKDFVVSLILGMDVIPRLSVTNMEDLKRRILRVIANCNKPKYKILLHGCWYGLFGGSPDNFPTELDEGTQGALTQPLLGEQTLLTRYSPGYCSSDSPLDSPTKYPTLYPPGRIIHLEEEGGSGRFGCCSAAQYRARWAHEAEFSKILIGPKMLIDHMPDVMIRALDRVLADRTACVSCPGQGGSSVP

[6] = biological target: T3, Diacylglycerol lipase-beta; assay: Inhibition of V-tagged mouse DAGLbeta expressed in […] cell membrane fractions using SAG as substrate assessed as accumulation of 2-AG preincubated for 30 mins followed by substrate addition measured after 30 mins by LC-MS natural substrate assay
[7] = biological target: T1, Diacylglycerol lipase-alpha; assay: Inhibition of human GST-tagged DAGLalpha expressed in HEK293F cell membranes using 1-stearoyl-2-arachidonoyl-sn-glycerol as substrate preincubated for 20 mins followed by substrate addition by enzyme coupled natural substrate assay
[8] = biological target: T1, Diacylglycerol lipase-alpha; assay: Inhibition of human DAGLalpha expressed in HEK293T cell membrane fractions using PNP butyrate as substrate preincubated for 20 mins followed by substrate addition by colorimetric surrogate substrate assay
[9] = biological target: Cannabinoid receptor 1 (Homo sapiens, UniProt P21554); assay: Antagonist activity at CBR1 (unknown origin)
[10] = biological target: T4, Diacylglycerol lipase-beta (Homo sapiens, UniProt Q8NCG7); assay: Inhibition of human GST-tagged DAGLbeta catalytic domain expressed in HEK293F cell membranes using EnzChek as substrate preincubated for 5 mins followed by substrate addition by fluorogenic surrogate substrate assay
T4 sequence (Q8NCG7 whole entry): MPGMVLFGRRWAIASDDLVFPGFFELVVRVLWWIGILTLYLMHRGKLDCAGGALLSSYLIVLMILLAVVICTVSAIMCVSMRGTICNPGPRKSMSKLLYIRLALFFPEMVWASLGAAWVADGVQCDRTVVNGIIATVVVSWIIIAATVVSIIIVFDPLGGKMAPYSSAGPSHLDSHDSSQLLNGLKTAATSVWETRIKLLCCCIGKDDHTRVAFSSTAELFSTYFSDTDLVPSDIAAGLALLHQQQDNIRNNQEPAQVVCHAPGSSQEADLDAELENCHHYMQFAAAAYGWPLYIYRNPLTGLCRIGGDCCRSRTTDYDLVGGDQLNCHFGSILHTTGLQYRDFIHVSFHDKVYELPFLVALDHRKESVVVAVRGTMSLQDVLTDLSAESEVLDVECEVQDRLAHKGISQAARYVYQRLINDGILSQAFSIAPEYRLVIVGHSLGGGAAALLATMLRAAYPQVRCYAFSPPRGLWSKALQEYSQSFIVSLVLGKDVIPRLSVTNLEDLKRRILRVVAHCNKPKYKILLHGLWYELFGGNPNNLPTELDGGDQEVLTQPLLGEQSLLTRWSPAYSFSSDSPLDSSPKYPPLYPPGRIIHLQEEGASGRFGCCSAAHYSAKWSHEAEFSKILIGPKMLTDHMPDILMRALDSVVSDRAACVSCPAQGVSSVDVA

[11] = biological target: T3, Diacylglycerol lipase-beta; assay: Inhibition of full length 3' FLAG-tagged mouse DAGLbeta expressed in African green monkey COS7 cells using sn-1-stearoyl-[14C]-arachidonoyl-glycerol as substrate preincubated for 15 mins followed by substrate addition measured after 30 mins by radiometric natural substrate assay; assay type: cell-based
[12] = biological target: T3, Diacylglycerol lipase-beta; assay: Inhibition of mouse DAGLbeta expressed in HEK293T cell membranes using SAG as substrate preincubated for 20 mins followed by substrate addition by enzyme coupled natural substrate assay

Chain of Cannabinoid receptor 1 (P21554 whole entry, the tested form may be a part): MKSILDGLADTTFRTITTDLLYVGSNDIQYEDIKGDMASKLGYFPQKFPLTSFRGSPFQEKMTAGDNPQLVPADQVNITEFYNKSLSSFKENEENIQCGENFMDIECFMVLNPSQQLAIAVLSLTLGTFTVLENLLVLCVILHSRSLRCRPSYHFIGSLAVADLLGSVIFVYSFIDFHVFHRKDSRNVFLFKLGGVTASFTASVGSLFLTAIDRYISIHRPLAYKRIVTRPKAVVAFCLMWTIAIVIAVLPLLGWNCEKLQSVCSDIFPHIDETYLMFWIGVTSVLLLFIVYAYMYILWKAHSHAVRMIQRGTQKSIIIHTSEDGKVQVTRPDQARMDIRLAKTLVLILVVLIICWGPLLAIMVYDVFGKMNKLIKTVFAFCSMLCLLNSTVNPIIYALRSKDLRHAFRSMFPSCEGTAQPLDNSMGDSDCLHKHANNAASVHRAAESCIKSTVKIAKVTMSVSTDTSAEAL

| Structure (SMILES) | IC50 [3] [nM] | IC50 [4] [nM] | IC50 [5] [nM] | other results |
| --- | --- | --- | --- | --- |
| O=C(NCCCCCCNC(=O)ON=C1CCCCC1)ON=C1CCCCC1 | – | – | – | IC50 [1]: 25100 nM; IC50 [2]: 5010 nM |
| O=C(N1CCCCC1Cc1ccccc1)n1cc(-c2ccc(-c3ccccc3)cc2)nn1 (stereo not drawn) | – | 2510 | 39.8 | IC50 [7]: 25.1 nM; IC50 [6]: 79.4 nM |
| CCCCCCCCCCCC(C[C@@H]1OC(=O)[C@H]1CCCCCC)OC(=O)[C@@H](NC=O)C(C)CC (stereo partly drawn) | – | – | – | Ki [9]: 6000 nM; IC50 [10]: 6.31 nM |
| CCCCCCCCCCCC(C[C@@H]1OC(=O)[C@H]1CCCCCC)OC(=O)[C@H](CC(C)C)NC=O (stereo partly drawn) | – | – | 2000 | IC50 [11]: 100 nM |
| CC(C)(C)OC(=O)N1CCN(C(=O)n2cc(-c3ccc(OC(F)(F)F)cc3)nn2)C(Cc2ccccc2)C1 (stereo not drawn) | – | 0.501 | 2.51 | IC50 [12]: 7.94 nM |

Now from value to compound, other results behind:

| IC50 [3] [nM] | IC50 [4] [nM] | IC50 [5] [nM] | Structure (SMILES) | other results |
| --- | --- | --- | --- | --- |
| 501 | – | – | O=C(CCCCCc1ccccc1)c1nc2ncccc2o1 | – |
| – | 126 | 63.1 | COc1ccccc1-c1ccc(-c2cn(C(=O)N3CCCCC3Cc3ccccc3)nn2)cc1 (stereo not drawn) | IC50 [6]: 79.4 nM |
| 126 | – | – | CC1(C)CCc2cc(S(=O)(=O)N(CC(=O)O)Cc3ccc(Oc4ccccc4)cc3)ccc2O1 | IC50 [7]: 1000 nM |
| – | 1.26 | 5.01 | C#CCO[C@@H]1CC[C@H](Cc2ccccc2)N(C(=O)n2ncc(C(O)(c3ccc(F)cc3)c3ccc(F)cc3)n2)C1 | – |
| 25.1 | – | – | Cc1ccc(-c2cnc3nc(C(=O)CCCCCc4ccccc4)oc3c2)cc1 | IC50 [8]: 3.16 nM |
